Assay results taken from patent US7820642B2, “Nandrolone 17β-carbonates” (The United States of America as represented by the …, priority 2005, dated 2010).
Entries after “also recorded” stand apart in the source; their conditions may differ.

Legend:
Type in all cases: in vivo, rat
[1] = tested on: castrate Sprague-Dawley male rats; assay: Duration of androgenic activity after a single subcutaneous injection (ventral prostate weight, AUC); settings: for Duration of androgenic activity (in words): single subcutaneous injection in aqueous vehicle; for AUC of ventral prostate weight (duration of androgenic activity): 14 weeks
Description: Duration of androgenic activity was determined as follows. Immature (22 days of age) male rats of the Sprague-Dawley CD strain were orchidectomized under METOFANE anesthesia and randomly assigned to groups of forty or more animals. Animals were maintained under standard conditions of housing and had free access to food and water. Illumination was controlled for 14-hour periods of light and 10 hours of darkness. Animals received a single subcutaneous injection of 0.6 mg of test material in aqueous suspending vehicle (ASV) and/or an oily vehicle (10% ethanol/sesame oil, sesame oil containing 5 mg/ml chlorobutanol as a preservative or ethyl oleate) on the day of surgery. Controls received vehicle alone. Testosterone enanthate in sesame oil was used as a standard. In cases where the test material was not solid at room temperature, i.e., a wax or oil, 10% ethanol/sesame oil or ethyl oleate was used as a vehicle. Five rats from each group were sacrificed at weekly or biweekly intervals and seminal vesicle and ventral prostate glands were excised, cleaned of adherent fat and connective tissue and weighed to the nearest 0.1 mg. Ventral prostate weight was used as the endpoint because it is the more sensitive organ to androgenic stimulation. Area under the curve (AUC) was calculated by the trapezoidal rule.
Each data point represents the mean (n=5) and standard error of the mean (SEM) prostate weight for each time period. […] In FIG. 8, the data for 1.2 mg dose groups are shown together with historical data for testosterone undecanoate in aqueous suspension and testosterone enanthate in sesame oil as standards. Both testosterone undecanoate and testosterone enanthate are commercially available.

[2] = Serum levels of dimethandrolone (CDB-1321) and immunoreactive metabolites by radioimmunoassay; set-up: AUC of serum concentration of dimethandrolone and immunoreactive metabolites: unit not given here; settings: n=5, FIG. 9
Description: Serum levels of testosterone and CDB-1321 were determined as follows. Rats from a duration of androgenic activity study were exsanguinated at autopsy, serum prepared by allowing blood to clot at room temperature and the sample frozen for subsequent radioimmunoassay. A radioimmunoassay for the free alcohol, 7a, 11β-dimethyl-19-nortestosterone, was developed using antisera generated in rabbits against the 3-carboxymethyloxime-BSA conjugate and employing the corresponding histamine conjugate for iodination as tracer.

[3] = tested on: castrate Sprague-Dawley male rats; assay: Androgenic activity, Hershberger test (ventral prostate weight)
Description: The androgenic activity was tested as follows (see, Hershberger et al., Proc. Soc. Exptl. Biol. Med., 83: 175-180 (1953)). Immature (approximately 21 day old) male rats of the Sprague-Dawley strain were orchidectomized under METOFANE® anesthesia and randomly assigned to groups of ten animals for each dose level of test material and vehicle controls. Animals were maintained under standard conditions of housing and had free access to food and water. Illumination was controlled for 14-hour periods of light and 10 hours of darkness. Test compounds were dissolved in 10% ethanol/sesame oil and administered by gavage (oral) or subcutaneous injection daily for seven consecutive days starting on the day of surgery. Animals were sacrificed 24 hours after the last dose and the ventral prostate and seminal vesicles excised, cleaned of fat and connective tissue, blotted on moist filter paper and weighed to the nearest 0.1 mg. Ventral prostate weight was used as the endpoint because ventral prostate is the more sensitive organ to androgenic stimulation.
Statistical analysis was performed by conventional methods using a PROPHET data management system operating on SUN Microsystems OS 4.1.1 (see e.g., Bliss, Cl (1952) The Statistics of Bioassay, New York, Academic Press; Hollister, C (1988), Nucleic Acids Research, 16:1873-1875.
Each data point represents the mean (n=10) and standard error of the mean (SEM) prostate weight for each dose level. The potency ratio and 95% confidence index are set forth below.

[4] = tested on: luteinizing hormone (rLH); assay: Serum rLH in castrate male rats
Description: FIG. 14 depicts the serum levels of rLH as a function of time for groups 2 and 4 of the animals. Serum rLH were measured in the blood from castrate male rats following fourteen daily 12 mg/kg oral doses of CDB-4719A (dimethandrolone 17β-decylcarbonate, filled circles, group 2) or CDB-4521C (dimethandrolone 17β-undecanoate, open triangles, group 4) in 10% ethanol/sesame oil on days 0-13. Samples from weeks −1 to 6 or from weeks 7 to 9 and repeats were assayed as described in the protocols MEL-480AD using [^125I]-rLH or MEL-480AE, AG using [^125I]-rLH. The limit of detection shown as dotted line, or EC90, was the mean of 0.13, 0.14, or 0.16 in the first assay and 0.17, 0.22, or 0.21 ng/ml in the second series of assays based on 200 μl of serum per tube.
FIG. 15 depicts the serum levels of rLH as a function of time for groups 1 and 3 of the animals. Serum rLH were measured in the blood from castrate male rats following a single 12 mg/kg subcutaneous injection of CDB-4719A (dimethandrolone 17β-decylcarbonate, filled circles, group 1) or CDB-4521C (dimethandrolone 17β-undecanoate, open triangles, group 3) in an aqueous suspending vehicle on day 0. Samples from weeks −1 to 6 or from weeks 7 to 22 and repeats were assayed as described in the protocols MEL-480AD using [^125I]-rLH or MEL-480AE, AG, AH using [^125I]-rLH. The limit of detection shown as dotted line, or EC90, was the mean of 0.13, 0.14, or 0.16 in the first assay and 0.17, 0.22, or 0.21 ng/ml in the second series of assays based on 200 μl of serum per tube.
Carbonates of the invention, in embodiments, can be used to suppress luteinizing hormone in a mammal for extended periods of time. […] CDB-4719A (dimethandrolone 17β-decylcarbonate) was administered to castrate male rats, daily at 12 mg/kg oral doses, and CDB-4521C (dimethandrolone 17β-undecanoate) was administered in 10% ethanol/sesame oil, on days 0-13. […] This observation could have advantageous clinical implications, for example, in obtaining sustained suppression of the luteinizing hormone or hormone replacement therapy. In addition, this could have an advantage by providing a facile treatment using oral compositions such as tablets or capsules of the carbonates of the invention in suppressing hormone levels. Such treatment can be advantageous relative to a treatment involving parenteral (e.g., subcutaneous) administration of a drug such as the ester drug. Patient compliance is better with oral formulations than injections.
FIG. 15 provides a comparison between CDB-4719A (dimethandrolone 17β-decylcarbonate) and CDB-4521C (dimethandrolone 17β-undecanoate). A single dose (12 mg/kg) of the compound was administered to castrate male rats by subcutaneous injection in an aqueous suspending vehicle on day 0. The serum rLH concentration was monitored over a 22-week period and beyond.

[5] = 1.2 mg, 14-week observation period
[6] = single subcutaneous injection of 0.6 mg in aqueous suspending vehicle
[7] = single subcutaneous injection of 1.2 mg in aqueous suspending vehicle
[8] = oral, daily for 7 days in 10% ethanol/sesame oil, CDB 110 (methyltestosterone) = 1.000 assigned, FIG. 5, ranges did not pass all significance tests
[9] = subcutaneous injection, daily for 7 days, CBD-111 (testosterone) = 1.000 assigned, FIG. 6, footnote 2 values did not pass all significance tests
[10] = fourteen daily 12 mg/kg oral doses in 10% ethanol/sesame oil, days 0-13, FIG. 14

Compound | AUC relative to testosterone enanthate in sesame oil [1, 5] | AUC relative to testosterone undecanoate [1, 5] | Duration of androgenic activity (in words) [1] | AUC of ventral prostate weight (duration of androgenic activity) [1, 6] [mg·week] | AUC of ventral prostate weight (duration of androgenic activity) [1, 7] [mg·week] | AUC of serum concentration of dimethandrolone and immunoreactive metabolites [2, 6] | AUC of serum concentration of dimethandrolone and immunoreactive metabolites [2, 7] | Androgenic activity Potency Ratio [3, 8] | Androgenic activity Potency Ratio ([3]; oral, daily for 7 days in 10% ethanol/sesame oil, CDB 110 (methyltestosterone) = 1.000 assigned, FIG. 5, ranges did not pass all significance tests, listed as 4719) | Androgenic activity Potency Ratio, 4718 vs. 4719 ([3]; oral, direct comparison of CDB-4718 and CDB-4719) | Androgenic activity Potency Ratio [3, 9] | Androgenic activity Potency Ratio ([3]; subcutaneous injection, daily for 7 days, CBD-111 (testosterone) = 1.000 assigned, FIG. 6, footnote 2 values did not pass all significance tests, listed as 4719) | Serum rLH after administration was discontinued [4, 10] | Serum rLH during administration [4, 10] | Serum rLH up to 16 weeks post administration ([4]; single 12 mg/kg subcutaneous injection in aqueous suspending vehicle on day 0, FIG. 15) | Serum rLH after 16 weeks ([4]; single 12 mg/kg subcutaneous injection in aqueous suspending vehicle on day 0, monitored over 22 weeks, FIG. 15) | Androgenic activity Potency Ratio ([3]; oral, daily for 7 days in 10% ethanol/sesame oil, CDB 110 (methyltestosterone) = 1.000 assigned, FIG. 5, ranges did not pass all significance tests, listed as 4718) | Androgenic activity Potency Ratio ([3]; subcutaneous injection, daily for 7 days, CBD-111 (testosterone) = 1.000 assigned, FIG. 6, footnote 2 values did not pass all significance tests, listed as 4718)
CCCCCCCCCCOC(=O)O[C@H]1CC[C@H]2[C@H]3[C@H]([C@@H](C)C[C@]12C)[C@H]1CCC(=O)C=C1C[C@H]3C [CDB-4719, 17β-Decyloxycarbonyloxy-7α,11β-dimethylestr-4-en-3-one] | more than three times greater | more than five times greater | far more potent than testosterone; also recorded: most dramatic increase and maintenance of ventral prostate weight | 1417 | 2764 | 4151 | 6010 | five to nine times | 5.486-8.992^1,2 | 3.016 | no more potent than testosterone standard | 0.64 | remained suppressed for several weeks | remained suppressed | remains suppressed | remained suppressed even at week 22 | – | –
COC(=O)O[C@H]1CC[C@H]2[C@H]3[C@H]([C@@H](C)C[C@]12C)[C@H]1CCC(=O)C=C1C[C@H]3C [CDB-4718, 17β-Methoxycarbonyloxy-7α,11β-dimethylestr-4-en-3-one] | – | – | short duration of action | 581 | 789 | 2848 | 3336 | about two and one-half times | – | – | 10.4-47.5 | – | – | – | – | – | 2.609^1 | 10.4-47.5^1,2
